According to PubChem BioAssay (NCI):
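GI50 marks 50% less growth. TGI: total growth inhibition.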

Legend:
Assay in all cases: growth of human tumour cells (NCI), 384-well format
[1] = test system: LOX IMVI melanoma
[2] = test system: PC-3 prostate
[3] = test system: SK-OV-3 ovarian
[4] = test system: CAKI-1 renal
[5] = test system: ACHN renal
[6] = test system: HL-60(TB) leukemia
[7] = test system: SK-MEL-2 melanoma
[8] = test system: SNB-19 CNS
[9] = test system: M14 melanoma
[10] = test system: MDA-MB-435 melanoma
[11] = test system: SN12C renal
[12] = test system: RXF 393 renal
[13] = test system: MALME-3M melanoma
[14] = test system: TK-10 renal
[15] = test system: HCT-15 colon
[16] = test system: NCI/ADR-RES ovarian
[17] = test system: NCI-H226 lung
[18] = test system: UACC-257 melanoma
[19] = test system: HCT-116 colon
[20] = test system: NCI-H322M lung
[21] = test system: SW-620 colon
[22] = test system: SNB-75 CNS
[23] = test system: SF-268 CNS
[24] = test system: IGROV1 ovarian
[25] = test system: OVCAR-3 ovarian
[26] = test system: NCI-H460 NSCLC
[27] = test system: OVCAR-8 ovarian
[28] = test system: HOP-92 NSCLC
[29] = test system: SF-539 CNS
[30] = test system: K-562 leukemia
[31] = test system: U251 glioblastoma
[32] = test system: HT29 colon
[33] = test system: NCI-H23 lung
[34] = test system: OVCAR-4 ovarian
[35] = test system: SK-MEL-28 melanoma
[36] = test system: HS 578T breast
[37] = test system: NCI-H522 lung
[38] = test system: BT-549 breast
[39] = test system: COLO 205 colon
[40] = test system: SK-MEL-5 melanoma
[41] = test system: MCF7 breast
[42] = test system: 786-0 renal
[43] = test system: CCRF-CEM leukemia
[44] = test system: UACC-62 melanoma
[45] = test system: HOP-62 NSCLC
[46] = test system: A549 NSCLC
[47] = test system: RPMI-8226 leukemia
[48] = test system: EKVX NSCLC
[49] = test system: HCC-2998 colon
[50] = test system: MDA-MB-468 breast
[51] = test system: DU-145 prostate
[52] = test system: A498 renal
[53] = test system: MOLT-4 leukemia
[54] = test system: SF-295 CNS
[55] = test system: KM12 colon

`CC/C(=C(\c1ccccc1)c1ccc(OCCNC)cc1)c1ccccc1` was tested, and the GI50 [1] was 1.79 µM, the TGI [1] was 3.21 µM and the GI50 [2] was 1.97 µM. For the same molecule, the TGI [2] was 3.48 µM, the GI50 [3] was 1.87 µM and the TGI [3] was 3.3 µM. It also gave a GI50 [4] of 1.53 µM, a TGI [4] of 2.92 µM and a GI50 [5] of 1.85 µM. It also gave a TGI [5] of 3.3 µM, a GI50 [6] of 1.58 µM and a TGI [6] of 2.94 µM. It also gave a GI50 [7] of 1.86 µM, a TGI [7] of 3.28 µM and a GI50 [8] of 2.14 µM. For the same molecule, the TGI [8] was 3.64 µM, the GI50 [9] was 2.07 µM and the TGI [9] was 3.52 µM. The GI50 [10] was 2.06 µM, the TGI [10] was 3.5 µM and the GI50 [11] was 1.85 µM. It also gave a TGI [11] of 3.42 µM, a GI50 [12] of 2.02 µM and a TGI [12] of 3.47 µM. The GI50 [13] was 2.15 µM, the TGI [13] was 3.61 µM and the GI50 [14] was 2.12 µM. The TGI [14] was 4.07 µM, the GI50 [15] was 1.82 µM and the TGI [15] was 3.27 µM. It also gave a GI50 [16] of 2.2 µM, a TGI [16] of 3.91 µM and a GI50 [17] of 2.15 µM. The TGI [17] was 4.65 µM, the GI50 [18] was 2.3 µM and the TGI [18] was 3.77 µM. The GI50 [19] was 1.97 µM, the TGI [19] was 3.45 µM and the GI50 [20] was 2.16 µM. The TGI [20] was 3.7 µM, the GI50 [21] was 1.98 µM and the TGI [21] was 3.46 µM. For the same molecule, the GI50 [22] was 2.06 µM, the TGI [22] was 3.55 µM and the GI50 [23] was 2.36 µM. For the same molecule, the TGI [23] was 3.93 µM, the GI50 [24] was 1.86 µM and the TGI [24] was 3.35 µM. It also gave a GI50 [25] of 1.92 µM, a TGI [25] of 3.4 µM and a GI50 [26] of 1.98 µM. It also gave a TGI [26] of 3.51 µM, a GI50 [27] of 1.86 µM and a TGI [27] of 3.32 µM. It also gave a GI50 [28] of 2.05 µM, a TGI [28] of 3.51 µM and a GI50 [29] of 2.1 µM. The TGI [29] was 3.56 µM, the GI50 [30] was 1.83 µM and the TGI [30] was 3.25 µM. The GI50 [31] was 2.16 µM, the TGI [31] was 3.64 µM and the GI50 [32] was 1.77 µM. The TGI [32] was 3.19 µM, the GI50 [33] was 2.13 µM and the TGI [33] was 3.67 µM. For the same molecule, the GI50 [34] was 2.1 µM, the TGI [34] was 3.68 µM and the GI50 [35] was 2.07 µM. For the same molecule, the TGI [35] was 3.52 µM, the GI50 [36] was 1.9 µM and the TGI [36] was 3.32 µM. The GI50 [37] was 1.93 µM, the TGI [37] was 3.36 µM and the GI50 [38] was 1.82 µM. For the same molecule, the TGI [38] was 3.26 µM, the GI50 [39] was 1.94 µM and the TGI [39] was 3.4 µM. It also gave a GI50 [40] of 1.69 µM, a TGI [40] of 3.08 µM and a GI50 [41] of 1.2 µM. For the same molecule, the TGI [41] was 2.61 µM, the GI50 [42] was 1.79 µM and the TGI [42] was 3.2 µM. The GI50 [43] was 1.73 µM, the TGI [43] was 3.13 µM and the GI50 [44] was 2.16 µM. For the same molecule, the TGI [44] was 3.63 µM, the GI50 [45] was 2.35 µM and the TGI [45] was 3.83 µM. The GI50 [46] was 1.71 µM, the TGI [46] was 3.16 µM and the GI50 [47] was 2.29 µM. The TGI [47] was 3.76 µM, the GI50 [48] was 1.92 µM and the TGI [48] was 3.67 µM. It also gave a GI50 [49] of 1.66 µM, a TGI [49] of 3.04 µM and a GI50 [50] of 2.39 µM. For the same molecule, the TGI [50] was 3.87 µM, the GI50 [51] was 2.26 µM and the TGI [51] was 4.24 µM. The GI50 [52] was 1.72 µM, the TGI [52] was 3.1 µM and the GI50 [53] was 1.49 µM. It also gave a TGI [53] of 2.82 µM, a GI50 [54] of 1.88 µM and a TGI [54] of 3.3 µM. For the same molecule, the GI50 [55] was 1.99 µM and the TGI [55] was 3.47 µM.
